Reference: paper PMC3077571 (Nature structural & molecular biology, 2011)

Molecular target: MBP W62F mutant (Escherichia coli, UniProt P0AEX9, S259C/W88F)
Assay type: binding
Settings: no sAB

In the case of `OC[C@H]1O[C@H](O[C@H]2[C@H](O)[C@@H](O)C(O)O[C@@H]2CO)[C@H](O)[C@@H](O)[C@@H]1O` (mixture of isomers) [maltose], the “decrease in maltose binding energy caused by W62F mutation” value was ~ 2 kcal/mol.
